Measurements published in patent publication US9421204B2, “Oligomer modified diaromatic substituted compounds” (priority 2010, dated 2016).
Like-named read-outs stand apart in the source and are kept apart here.

What was measured:
[1] = Log P determination (Sirius GLpKa); assay type: physicochemical; settings: Partition Log P, 25° C.; for logP: read-out: Log P
Procedure: The Sirius GLpKa instrument is used to determine the pKa and Log P. A blank standardization has to be completed first and passed in order to conduct the compound experiments. The solutions used by the instrument for the blank titration include water, a pH solution, and a surfactant (TRITON X-100). The TRITON X-100 was purchased commercially from Sirus. The 0.5% solution of TRITON X-100 was used in the experiment. In a 1 L volumetric flask 5 mls of TRITON X-100 is added and MILLI Q water to volume. The vessels used by the instrument were filled to ⅓ of their volume with each solution. Therefore the assay tray contains one vessel for water, pH solution, and surfactant for the blank run. The temperature of the water bath for the instrument is 25° C. The blank is calculated as an average of three “good” experiments. The “good” was denoted by a green check mark next to the assay number in the computer software. Once the blank was run successfully the instrument was ready to conduct the experiments. An additional method has to be set up for the Log P determinations for each compound. The conjugates are weighed into vessels in the same manner as for the previous experiment, i.e., 10% of the molecular weight. The vessels are placed in the assay tray of the instrument. The experimental parameters are entered into the computer. These included sample weight, molecular weight, assay type (Partition Log P), number of assays (three), and pKa value of the parent drug from the previous experiment. The run was started. There are three measurements for each run that are averaged to obtain the final results from the data points collected in the calculation software. All runs were denoted as “good” by the green check mark next to the assay number.

[2] = pKa determination (Sirius GLpKa); assay type: physicochemical; settings: aqueous pKa, 25° C.
Procedure: The Sirius GLpKa instrument is used to determine the pKa and Log P. A blank standardization has to be completed first and passed in order to conduct the compound experiments. The solutions used by the instrument for the blank titration include water, a pH solution, and a surfactant (TRITON X-100). The TRITON X-100 was purchased commercially from Sirus. The 0.5% solution of TRITON X-100 was used in the experiment. In a 1 L volumetric flask 5 mls of TRITON X-100 is added and MILLI Q water to volume. The vessels used by the instrument were filled to ⅓ of their volume with each solution. Therefore the assay tray contains one vessel for water, pH solution, and surfactant for the blank run. The temperature of the water bath for the instrument is 25° C. The blank is calculated as an average of three “good” experiments. The “good” was denoted by a green check mark next to the assay number in the computer software. Once the blank was run successfully the instrument was ready to conduct the experiments.
The pKa has to be determined first in order to calculate the Log P. The API is used to determine the pKa needed for the Log P experiment followed by the conjugates. The base compound was first weighed into a vessel. The amount weighed for each sample was 10% of the molecular weight of the compound. The same procedure was followed for each conjugate. The vessels were placed in the assay tray of the instrument. A method had to be set up for the pKa run. The experimental parameters are entered into the computer software. These included sample weight, molecular weight, assay type (aqueous pKa), number of assays (three), and titration range (generally 3.5-12). The run was started. There are three measurements for each run that are averaged to obtain the final results from the data points collected in the calculation software. All runs were denoted as “good” by the green check mark next to the assay number.

HIV-1RF = experiment: Anti-HIV-1 cytoprotection assay in CEM-SS cells; assay type: cell-based; settings: for Therapeutic Index: CEM-SS/HIV-1RF; for EC50: CEM-SS cells, XTT, read-out: CEM-SS/HIV-1RF EC50
Procedure: Cell Preparation—CEM-SS cells were passaged in T-75 flasks prior to use in the antiviral assay. On the day preceding the assay, the cells were split 1:2 to assure they were in an exponential growth phase at the time of infection. Total cell and viability quantification was performed using a hemocytometer and Trypan Blue dye exclusion. […] The cells were resuspended at 5×10^4 cells per ml in tissue culture medium and added to the drug containing microtiter plates in a volume of 50 μL.
Virus Preparation—The virus used for the assay was the lymphocyte-tropic virus strain HIV-IRF. The virus was obtained from the NIH AIDS Research and Reference Reagent Program and stock virus pools were produced in CEM-SS cells. A pretitred aliquot of virus was removed from the freezer (−80° C.) and allowed to thaw slowly to room temperature in a biological safety cabinet.
Plate Format—Each plate contains cell control wells (cells only), virus control wells (cells plus virus), drug toxicity wells (cells plus drug only), drug colorimetric control wells (drug only) as well as experimental wells (drug plus cells plus virus). Samples were tested in triplicate with eleven half-log dilutions per compound.
Efficacy and Toxicity XTT—Following incubation at 37° C. in a 5% CO2 incubator, the test plates were stained with the tetrazolium dye XTT (2,3-bis(2-methoxy-4-nitro-5-sulfophenyl)-5-[(phenylamino)carbonyl]-2H-tetrazolium hydroxide). XTT-tetrazolium is metabolized by the mitochondrial enzymes of metabolically active cells to a soluble formazan product, allowing rapid quantitative analysis of the inhibition of HIV induced cell killing by anti-HIV test substances. XTT solution was prepared daily as a stock of 1 mg/mL in RPMI1640. Phenazine methosulfate (PMS) solution was prepared at 0.15 mg/mL in PBS and stored in the dark at −20° C. XTT/PMS stock was prepared immediately before use by adding 40 μL of PMS per ml of XTT solution. Fifty microliters of XTT/PMS was added to each well of the plate and the plate was re-incubated for 4 hours at 37° C. Plates were sealed with adhesive plate sealers and shaken gently or inverted several times to mix the soluble fosmazan product and the plate was read spectrophotometrically at 450/650 nm with a Molecular Devices Vmax plate reader.
Anti-HIV-1 Cytopathic Effects Inhibition Assay Evaluations: Eight compounds were evaluated against the RF strain of HIV-1 in CEM-SS cells using a 12 concentration dose response curve.
Data Analysis—Raw data was collected from the Softmax Pro 4.6 software and imported into a Excel XLFit4 spreadsheet for analysis by four parameter curve fit calculations. Both antiviral activity and toxicity are calculated.

[3] = Toxicity XTT in CEM-SS cells (cytoprotection assay); assay type: cell-based; settings: human, CEM-SS cells, XTT; read-out: CEM-SS TC50
How it was run: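 CEM-SS cells in exponential growth (>95% viable) were plated with compound alone, as eleven half-log dilutions in triplicate, at 37 °C and 5% CO2. Viability was measured by XTT/PMS metabolism over 4 h, read at 450/650 nm. Toxicity was derived by four-parameter curve fitting.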

[4] = Human immunodeficiency virus 1, CEM-SS

Row | Compound | logP [1] | pKa1 [2] | Therapeutic Index (HIV-1RF) | EC50 (HIV-1RF; [4]) | CC50 [3] | Log P [1] | EC50 (HIV-1RF)
1 | COCCOCCOCCOCCOc1ccc2[nH]c(C(=O)N3CCN(c4ncccc4NC(C)C)CC3)cc2c1 [mPEG4-O-Delavirdine, 5-O-mPEG4-Delavirdine] | 2.22 | 4.275 | 213.8 | 160 nM | 34000 nM | – | –
2 | COCCOCCOCCOCCOCCOc1ccc2[nH]c(C(=O)N3CCN(c4ncccc4NC(C)C)CC3)cc2c1 [mPEG5-O-Delavirdine, 5-O-mPEG5-Delavirdine] | – | 4.454 | 19.0 | 760 nM | 14400 nM | – | –
3 | COCCOCCOCCOCCOCCOCCOc1ccc2[nH]c(C(=O)N3CCN(c4ncccc4NC(C)C)CC3)cc2c1 [mPEG6-O-Delavirdine, 5-O-mPEG6-Delavirdine] | 2.65 | 4.447 | 26.7 | 840 nM | 22500 nM | – | –
4 | COCCOCCNc1ccc2[nH]c(C(=O)N3CCN(c4ncccc4NC(C)C)CC3)cc2c1 [5-mPEG2-NH-Delavirdine] | – | – | 3266.29 | 17 nM | 55500 nM | – | –
5 | COCCNc1ccc2[nH]c(C(=O)N3CCN(c4ncccc4NC(C)C)CC3)cc2c1 [5-mPEG1-NH-Delavirdine, 5-mPEG-NH-Delavirdine] | – | – | 1083.11 | 47 nM | 50900 nM | – | –
6 | 5-O-mPEG9-Delavirdine [mPEG9-O-Delavirdine] | – | 4.655 | 323.1 | – | – | 2.328 | 130 nM
7 | COCCOCCOCCOc1ccc2[nH]c(C(=O)N3CCN(c4ncccc4NC(C)C)CC3)cc2c1 [mPEG3-O-Delavirdine, 5-O-mPEG3-Delavirdine] | 1.98 | 3.792 | 499.0 | 54 nM | 26900 nM | – | –
8 | COCCOCCOCCOCCOCCOCCOCCOc1ccc2[nH]c(C(=O)N3CCN(c4ncccc4NC(C)C)CC3)cc2c1 [mPEG7-O-Delavirdine, 5-O-mPEG7-Delavirdine] | 2.73 | 4.683 | 76.1 | 470 nM | 35500 nM | – | –
9 | COCCOCCOCCOCCOCCOCCOCCOCCOc1ccc2[nH]c(C(=O)N3CCN(c4ncccc4NC(C)C)CC3)cc2c1 [mPEG8-O-Delavirdine, 5-O-mPEG8-Delavirdine] | 2.58 | 4.667 | 144.2 | 360 nM | 52500 nM | – | –
